This note sets out measurements from patent publication US20230139171A1 (SITA Information Networking Computing UK Limited, priority 2019, published 2023).

Molecules are shown by their SMILES.

The target in one assay is T1, human TLR7 (Homo sapiens, UniProt Q9NYK1).
T1 construct: host or cells: HEK-Blue cells
T1 sequence (Q9NYK1 27-1049): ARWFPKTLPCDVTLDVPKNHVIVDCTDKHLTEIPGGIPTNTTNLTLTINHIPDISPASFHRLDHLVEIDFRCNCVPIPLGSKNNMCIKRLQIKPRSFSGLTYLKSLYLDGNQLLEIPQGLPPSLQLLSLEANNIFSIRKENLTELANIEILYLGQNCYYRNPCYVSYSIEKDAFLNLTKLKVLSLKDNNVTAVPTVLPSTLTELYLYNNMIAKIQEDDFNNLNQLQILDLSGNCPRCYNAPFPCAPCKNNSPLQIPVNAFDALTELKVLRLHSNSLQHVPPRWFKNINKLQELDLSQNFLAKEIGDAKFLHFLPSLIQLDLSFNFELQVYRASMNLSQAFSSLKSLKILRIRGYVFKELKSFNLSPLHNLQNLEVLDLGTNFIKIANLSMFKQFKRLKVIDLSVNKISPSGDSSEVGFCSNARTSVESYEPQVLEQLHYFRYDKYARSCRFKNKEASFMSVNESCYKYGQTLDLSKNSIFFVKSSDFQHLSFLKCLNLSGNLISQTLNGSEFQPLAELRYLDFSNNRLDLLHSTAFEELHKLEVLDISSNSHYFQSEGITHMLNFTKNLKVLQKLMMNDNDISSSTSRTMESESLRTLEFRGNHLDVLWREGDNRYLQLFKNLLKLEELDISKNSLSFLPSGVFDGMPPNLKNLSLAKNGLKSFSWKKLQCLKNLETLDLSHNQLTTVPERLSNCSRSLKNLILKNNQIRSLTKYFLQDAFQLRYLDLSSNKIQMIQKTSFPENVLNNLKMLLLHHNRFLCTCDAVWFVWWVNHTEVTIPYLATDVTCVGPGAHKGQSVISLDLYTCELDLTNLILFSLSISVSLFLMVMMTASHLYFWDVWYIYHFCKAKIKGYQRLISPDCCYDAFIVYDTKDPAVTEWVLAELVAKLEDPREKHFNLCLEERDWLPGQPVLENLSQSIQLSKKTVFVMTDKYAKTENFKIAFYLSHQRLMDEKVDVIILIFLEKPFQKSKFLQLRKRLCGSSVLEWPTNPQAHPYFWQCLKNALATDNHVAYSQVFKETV
Description: TLR7 inhibition reporter assay (HEK-Blue cells, SEAP reporter, gardiquimod stimulation). The assay is classed as cell-based. The following applies: HEK-Blue cells overexpressing human TLR7, SEAP reporter, gardiquimod 7.5 μM; read-out: TLR7 IC50. Here is the method:
(§1) TLR7/8/9 Inhibition Reporter Assays
(§2) HEK-Blue™-cells (Invivogen) overexpressing human TLR7, TLR8 or TLR9 receptors were used for screening inhibitors of these receptors using an inducible SEAP (secreted embryonic alkaline phosphatase) reporter gene under the control of the IFN-β minimal promoter fused to five NF-κB and AP-1-binding sites. Briefly, cells are seeded into Greiner 384 well plates (15000 cells per well for TLR7, 20,000 for TLR8 and 25,000 for TLR9) and then treated with test compounds in DMSO to yield a final dose response concentration range of 0.05 nM-50 μM. After a 30 minute compound pre-treatment at room temperature, the cells are then stimulated with a TLR7 ligand (gardiquimod at a final concentration of 7.5 μM), TLR8 ligand (R848 at a final concentration of 15.9 μM) or TLR9 ligand (ODN2006 at a final concentration of 5 nM) to activate NF-κB and AP-1 which induce the production of SEAP. After a 22 hour incubation at 37° C., 5% CO2, SEAP levels are determined with the addition of HEK-Blue™ Detection reagent (Invivogen), a cell culture medium that allows for detection of SEAP, according to manufacturer's specifications. The percent inhibition is determined as the % reduction in the HEK-Blue signal present in wells treated with agonist plus DMSO alone compared to wells treated with a known inhibitor.

Another assay has as its target T2, human TLR8 (Homo sapiens, UniProt Q9NR97).
T2 construct: host or cells: HEK-Blue cells
T2 sequence (Q9NR97 27-1041): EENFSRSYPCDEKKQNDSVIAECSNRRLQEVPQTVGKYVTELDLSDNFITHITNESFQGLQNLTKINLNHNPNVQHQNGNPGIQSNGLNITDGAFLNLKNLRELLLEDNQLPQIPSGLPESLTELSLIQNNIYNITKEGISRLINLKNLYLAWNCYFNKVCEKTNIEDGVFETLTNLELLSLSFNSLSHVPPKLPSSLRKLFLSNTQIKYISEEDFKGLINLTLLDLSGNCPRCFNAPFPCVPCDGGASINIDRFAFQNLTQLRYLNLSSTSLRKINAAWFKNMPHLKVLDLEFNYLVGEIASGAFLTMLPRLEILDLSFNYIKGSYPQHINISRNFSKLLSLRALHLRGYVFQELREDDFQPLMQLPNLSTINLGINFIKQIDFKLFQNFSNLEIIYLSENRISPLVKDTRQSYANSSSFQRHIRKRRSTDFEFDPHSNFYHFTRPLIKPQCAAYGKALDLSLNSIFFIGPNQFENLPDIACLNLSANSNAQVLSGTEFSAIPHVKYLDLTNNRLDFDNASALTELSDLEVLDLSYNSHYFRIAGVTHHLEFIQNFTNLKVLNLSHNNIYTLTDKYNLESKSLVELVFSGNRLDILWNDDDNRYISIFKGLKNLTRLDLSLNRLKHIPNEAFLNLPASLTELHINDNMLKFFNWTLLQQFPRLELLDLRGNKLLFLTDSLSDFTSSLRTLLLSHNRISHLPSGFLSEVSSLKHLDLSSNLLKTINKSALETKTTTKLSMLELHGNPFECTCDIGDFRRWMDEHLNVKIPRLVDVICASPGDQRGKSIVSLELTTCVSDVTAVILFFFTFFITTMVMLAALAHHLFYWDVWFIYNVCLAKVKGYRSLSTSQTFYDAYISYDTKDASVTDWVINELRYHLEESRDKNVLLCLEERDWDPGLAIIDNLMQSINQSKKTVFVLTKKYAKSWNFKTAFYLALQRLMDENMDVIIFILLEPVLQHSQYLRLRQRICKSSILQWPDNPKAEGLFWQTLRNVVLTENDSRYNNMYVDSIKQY
Description: TLR8 inhibition reporter assay (HEK-Blue cells, SEAP reporter, R848 stimulation). The format is cell-based. The conditions noted are these: HEK-Blue cells overexpressing human TLR8, SEAP reporter, R848 15.9 μM; read-out: TLR8 IC50. Here is the method:
as §1, §2

Regarding `Cc1c(-c2[nH]c3sc(N4CC5(CN(CCS(C)(=O)=O)C5)C4)nc3c2C(C)C)cn(C)c(=O)c1C` [Example 305, 5-(6-isopropyl-2-(6-(2-(methylsulfonyl)ethyl)-2,6-diazaspiro[3.3]heptan-2-yl)-4H-pyrrolo[3,2-d]thiazol-5-yl)-1,3,4-trimethylpyridin-2(1H)-one], the half-inhibitory concentration (IC50) turned out to be 311 nM on human TLR7 and 70 nM at human TLR8.
The like results for `Cc1c(-c2[nH]c3sc(N4C[C@@H](C)N(CC(=O)N(C)C)C[C@@H]4C)nc3c2C(C)C)cn2ncnc2c1C` [Example 335, 2-((2R,5S)-4-(5-(7,8-dimethyl-[1,2,4]triazolo[1,5-a]pyridin-6-yl)-6-isopropyl-4H-pyrrolo[3,2-d]thiazol-2-yl)-2,5-dimethylpiperazin-1-yl)-N,N-dimethylacetamide] were, in that order, 15.5 nM and 11.1 nM.
The like results for `Cc1cc(-c2[nH]c3sc(C(=O)N4CCCC4)nc3c2C(C)C)cn2ncnc12` [Example 393, (6-isopropyl-5-(8-methyl-[1,2,4]triazolo[1,5-a]pyridin-6-yl)-4H-pyrrolo[3,2-d]thiazol-2-yl)(pyrrolidin-1-yl) methanone] were, in that order, 77.6 nM and 140 nM.
In the case of `Cc1c(-c2[nH]c3sc(CNCC(N)=O)nc3c2C(C)C)cn2ncnc2c1C` [Example 402, 2-(((5-(7,8-dimethyl-[1,2,4]triazolo[1,5-a]pyridin-6-yl)-6-isopropyl-4H-pyrrolo[3,2-d]thiazol-2-yl)methyl)amino)acetamide], the IC50 worked out at 35.1 nM at human TLR7 and 297 nM at human TLR8.
As for `Cc1c(-c2[nH]c3sc(N4CCN(CC(C)(C)O)C[C@@H]4C)nc3c2C(C)C)cn2ncnc2c1C` [Example 345, (S)-1-(4-(5-(7,8-dimethyl-[1,2,4]triazolo[1,5-a]pyridin-6-yl)-6-isopropyl-4H-pyrrolo[3,2-d]thiazol-2-yl)-3-methylpiperazin-1-yl)-2-methylpropan-2-ol], the results for the half-maximal inhibitory concentration (IC50) on human TLR7 and on human TLR8 were 23.4 nM and 3.12 nM, respectively.
The matching figures for `Cc1cc(-c2[nH]c3sc(C(=O)NC4COC4)nc3c2C(C)C)cn2ncnc12` [Example 397, 6-isopropyl-5-(8-methyl-[1,2,4]triazolo[1,5-a]pyridin-6-yl)-N-(oxetan-3-yl)-4H-pyrrolo[3,2-d]thiazole-2-carboxamide]: 221 nM and 463 nM.
Consider `Cc1c(-c2[nH]c3sc(N4CC5(C4)CN(C4COC4)C5)nc3c2C(C)C)cn(C)c(=O)c1C` [Example 306, 5-(6-isopropyl-2-(6-(oxetan-3-yl)-2,6-diazaspiro[3.3]heptan-2-yl)-4H-pyrrolo[3,2-d]thiazol-5-yl)-1,3,4-trimethylpyridin-2(1H)-one], for which the IC50 at human TLR7 worked out at 148 nM; on human TLR8, 124 nM.
The matching figures for `Cc1cc(-c2[nH]c3sc(C(=O)N4CCCOCC4)nc3c2C(C)C)cn2ncnc12` [Example 394, (6-isopropyl-5-(8-methyl-[1,2,4]triazolo[1,5-a]pyridin-6-yl)-4H-pyrrolo[3,2-d]thiazol-2-yl)(1,4-oxazepan-4-yl)methanone]: 154 nM and 529 nM.
Turning to `Cc1c(-c2[nH]c3sc(N4CCN(CC(=O)N(C)C)CC4)nc3c2C(C)C)cn2ncnc2c1C` [Example 283, 2-(4-(5-(7,8-dimethyl-[1,2,4]triazolo[1,5-a]pyridin-6-yl)-6-isopropyl-4H-pyrrolo[3,2-d]thiazol-2-yl)piperazin-1-yl)-N,N-dimethylacetamide], the IC50 at human TLR7 is 18.8 nM; at human TLR8, 1.7 nM.
The like results for `Cc1c(-c2[nH]c3sc(C4CCN(CC(N)=O)CC4)nc3c2C(C)C)cn(C)c(=O)c1C` [Example 64, 2-(4-(6-isopropyl-5-(1,4,5-trimethyl-6-oxo-1,6-dihydropyridin-3-yl)-4H-pyrrolo[3,2-d]thiazol-2-yl)piperidin-1-yl)acetamide] were, in that order, 32.7 nM and 10.4 nM.
The like results for `CC(C)c1c(-c2cn(C)c3ncccc23)[nH]c2sc(C3CCN(CCS(C)(=O)=O)CC3)nc12` [Example 33, 6-isopropyl-5-(1-methyl-1H-pyrrolo[2,3-b]pyridin-3-yl)-2-(1-(2-(methylsulfonyl)ethyl)piperidin-4-yl)-4H-pyrrolo[3,2-d]thiazole] were, in that order, 3.86 nM and 1.52 nM.
The like results for `Cc1c(-c2[nH]c3sc(N4CCN(C5COC5)CC4)nc3c2C(C)C)cn2ncnc2c1C` [Example 286, 5-(7,8-dimethyl-[1,2,4]triazolo[1,5-a]pyridin-6-yl)-6-isopropyl-2-(4-(oxetan-3-yl)piperazin-1-yl)-4H-pyrrolo[3,2-d]thiazole] were, in that order, 25.6 nM and 14.6 nM.
`CC(=O)N1CCC(c2nc3c(C(C)C)c(-c4cn5ncnc5c(C)c4C)[nH]c3s2)CC1` [Example 59, 1-(4-(5-(7,8-dimethyl-[1,2,4]triazolo[1,5-a]pyridin-6-yl)-6-isopropyl-4H-pyrrolo[3,2-d]thiazol-2-yl)piperidin-1-yl)ethan-1-one]: the IC50 at human TLR7 came to 5.83 nM; at human TLR8, 47.2 nM.
The matching figures for `CC(C)c1c(-c2cn(C)c3ncccc23)[nH]c2sc(C3CCN(C(=O)CN(C)C)CC3)nc12` [Example 32, 2-(dimethylamino)-1-(4-(6-isopropyl-5-(1-methyl-1H-pyrrolo[2,3-b]pyridin-3-yl)-4H-pyrrolo[3,2-d]thiazol-2-yl)piperidin-1-yl)ethan-1-one]: 3.41 nM and 15.9 nM.
The matching figures for `Cc1c(-c2[nH]c3sc(C(N)=O)nc3c2C(C)C)cn2ncnc2c1C` [Example 385, 5-(7,8-dimethyl-[1,2,4]triazolo[1,5-a]pyridin-6-yl)-6-isopropyl-4H-pyrrolo[3,2-d]thiazole-2-carboxamide]: 58.8 nM and 31.4 nM.
